The test system of data set [1] is HepG2. The experiment in a line: Cytotoxicity against human HepG2 cells after 24 to 48 hrs by MTT assay. In kind it is functional, cell-based. In general terms: Formazan colour is commonly taken as a measure of viable cells.
Data set [2] deals with HepG2. Nature of the data set: Induction of apoptosis in human HepG2 cells assessed as increase of cleaved PARP level at IC50 after 48 hrs by Western blotting. In kind it is functional, cell-based.
Data set [3] concerns HepG2. The experiment in a line: Induction of apoptosis in human HepG2 cells assessed as viable cells at IC50 after 48 hrs using Annexin-V-FITC staining by flow cytometer analysis (reference value: 97.3%). It counts as functional. Background: In flow cytometry, cells or beads pass a laser one at a time.
The test system of data set [4] is HepG2. Nature of the data set: Induction of apoptosis in human HepG2 cells assessed as decrease of Bcl2 protein expression at IC50 after 48 hrs by Western blotting. In kind it is functional, cell-based. A general note: A western blot detects proteins with antibodies after separation by electrophoresis.
Data set [5] has as its system HepG2. The experiment in a line: Induction of apoptosis in human HepG2 cells assessed as early apoptotic cells at IC50 after 48 hrs using Annexin-V-FITC staining by flow cytometer analysis (reference value: 0.6%). It counts as functional.
Data set [6] has as its system HepG2. The experiment in a line: Induction of apoptosis in human HepG2 cells assessed as increase of Bax protein expression at IC50 after 48 hrs by Western blotting. In kind it is functional, cell-based.
The subject of data set [7] is HepG2. The experiment in a line: Induction of apoptosis in human HepG2 cells assessed as late apoptotic cells at IC50 after 48 hrs using Annexin-V-FITC staining by flow cytometer analysis (reference value: 0.5%). It counts as functional.
Data set [8] concerns HepG2. The experiment in a line: Induction of apoptosis in human HepG2 cells assessed as increase of cleaved caspase 3/9 level at IC50 after 48 hrs by Western blotting. It counts as functional, cell-based.
Data set [9] deals with HepG2. Nature of the data set: Cytotoxicity against human HepG2 cells after 48 hrs by MTT assay. As to conditions: HepG2, 48 h. In kind it is functional, cell-based.
The test system of data set [10] is HepG2. The experiment in a line: Induction of apoptosis in human HepG2 cells assessed as necrotic cells at IC50 after 48 hrs using Annexin-V-FITC staining by flow cytometer analysis (reference value: 1.5%). In kind it is functional.
A short description of data set [11]: Cytotoxicity against rat IEC-6 cells assessed as cell viability up to 100 uM after 24 to 48 hrs by MTT assay. It counts as cell-based.
Data set [12] has as its system HepG2. The experiment in a line: Induction of apoptosis in human HepG2 cells assessed as increase of p53 and p21 protein expression at IC50 after 48 hrs by Western blotting. In kind it is functional, cell-based.
The test system of data set [13] is HepG2. The experiment in a line: Induction of apoptosis in human HepG2 cells assessed as increase of cytochrome-c relase at IC50 after 48 hrs by Western blotting. It counts as functional, cell-based.
The test system of data set [14] is COLO 205. Nature of the data set: Induction of apoptosis in human COLO205 cells assessed as increase of p53 protein expression at IC50 after 48 hrs by Western blotting. In kind it is functional, cell-based.
Data set [15] deals with COLO 205. Nature of the data set: Induction of apoptosis in human COLO205 cells assessed as necrotic cells at IC50 after 24 hrs using Annexin-V-FITC staining by flow cytometer analysis relative to control. It counts as functional.
Data set [16] relates to COLO 205. Nature of the data set: Induction of apoptosis in human COLO205 cells assessed as necrotic cells at IC50 after 48 hrs using Annexin-V-FITC staining by flow cytometer analysis (reference value: 0.5%). In kind it is functional.
Data set [17] deals with COLO 205. The experiment in a line: Induction of apoptosis in human COLO205 cells assessed as increase of p21 protein expression at IC50 after 48 hrs by Western blotting. It counts as functional, cell-based.
The test system of data set [18] is COLO 205. Nature of the data set: Induction of apoptosis in human COLO205 cells assessed as late apoptotic cells at IC50 after 24 hrs using Annexin-V-FITC staining by flow cytometer analysis (reference value: 0.07%). In kind it is functional.
Data set [19] relates to COLO 205. The experiment in a line: Induction of apoptosis in human COLO205 cells assessed as late apoptotic cells at IC50 after 48 hrs using Annexin-V-FITC staining by flow cytometer analysis (reference value: 6.5%). In kind it is functional.
The test system of data set [20] is COLO 205. The experiment in a line: Induction of apoptosis in human COLO205 cells assessed as viable cells at IC50 after 24 hrs using Annexin-V-FITC staining by flow cytometer analysis (reference value: 75.5%). It counts as functional.
Data set [21] deals with COLO 205. Nature of the data set: Cytotoxicity against human COLO205 cells after 48 hrs by MTT assay. It counts as functional, cell-based. As to conditions: for IC50: COLO 205, 48 h.
Data set [22] has as its system COLO 205. Nature of the data set: Induction of apoptosis in human COLO205 cells assessed as increase of Bax protein expression at IC50 after 48 hrs by Western blotting. It counts as functional, cell-based.
Data set [23] relates to COLO 205. The experiment in a line: Induction of apoptosis in human COLO205 cells assessed as activation of caspase-8 at IC50 after 48 hrs by Western blotting. In kind it is functional, cell-based.
Data set [24] relates to COLO 205. Nature of the data set: Induction of apoptosis in human COLO205 cells assessed as increase of cytochrome-c relase at IC50 after 48 hrs by Western blotting. It counts as functional, cell-based.
In data set [25] the test system is COLO 205. The experiment in a line: Induction of apoptosis in human COLO205 cells assessed as early apoptotic cells at IC50 after 48 hrs using Annexin-V-FITC staining by flow cytometer analysis (reference value: 0.3%). It counts as functional.
For data set [26], the system named is COLO 205. Nature of the data set: Induction of apoptosis in human COLO205 cells assessed as viable cells at IC50 after 48 hrs using Annexin-V-FITC staining by flow cytometer analysis (reference value: 65.8%). It counts as functional.
Data set [27] has as its system COLO 205. The experiment in a line: Induction of apoptosis in human COLO205 cells assessed as early apoptotic cells at IC50 after 24 hrs using Annexin-V-FITC staining by flow cytometer analysis (reference value: 0.07%). It counts as functional.
The subject of data set [28] is COLO 205. The experiment in a line: Induction of apoptosis in human COLO205 cells assessed as cleaved procaspase-3 level at IC50 after 48 hrs by Western blotting. In kind it is functional, cell-based.
Data set [29] concerns COLO 205. Nature of the data set: Induction of apoptosis in human COLO205 cells assessed as activation of caspase-9 at IC50 after 48 hrs by Western blotting. It counts as functional, cell-based.
Data set [30] concerns COLO 205. The experiment in a line: Cytotoxicity against human COLO205 cells after 24 hrs by MTT assay. It counts as functional, cell-based.
The test system of data set [31] is COLO 205. The experiment in a line: Induction of apoptosis in human COLO205 cells assessed as decrease of Bcl2 protein expression at IC50 after 48 hrs by Western blotting. In kind it is functional, cell-based.
Data set [32] concerns HepG2. Nature of the data set: Cytotoxicity against human HepG2 cells up to 100 uM after 24 to 48 hrs by MTT assay. In kind it is functional, cell-based.
For data set [33], the system named is COLO 205. The experiment in a line: Induction of apoptosis in human COLO205 cells assessed as cleaved PARP level at IC50 after 48 hrs by Western blotting. In kind it is functional, cell-based.
The subject of data set [34] is HeLa. The experiment in a line: Cytotoxicity against human HeLa cells. In kind it is functional.
Data set [35] deals with HepG2. The experiment in a line: Cytotoxicity against human HepG2 cells. In kind it is functional.

SMILES strings stand for the structures. In brackets after ≈: the same amount, converted by molar mass. Activity calls are given as the source filed them. The rule behind the calls is not given here.

The IC50 is the concentration that inhibits the measured activity by half. Higher therefore signals lower potency. As usually defined, the CC50 is the concentration at which the toxic effect on the cells reaches its halfway point. A high value points to better tolerance by the cells.

For the molecule `Nc1n[nH]c2c1C(=O)NN=C1c3ccccc3OCCC12` (centres undefined), the Activity result in data set [1] is “Dose-dependent effect”; in data set [3], 74.5%; in [5], 11.2%; in [7], 7.6%; in data set [10] it was 6.7%; in [11], “Non-toxic”. Further, the outcome in data set [2], in data set [4], in [6], in [8], in data set [12] and in data set [13] was Active. The same molecule came in with an IC50 in data set [9] of 60 µM.
On to `Cc1cc2c(cc1C)-c1oc(=O)c3c(N)n[nH]c3c1CCO2`, for which the result in data set [14], in data set [23], in [30] and in data set [32] was inactive. Also, the Activity in data set [15] was 0.7%; in data set [16], 7.5%; in [18], 4.3%; in data set [19], 4%; in data set [20] it was 50.6%; in data set [21], “Dose-dependent effect”. The Activity in data set [25] is recorded as 0.1%; in data set [26] it was 63.5%; in data set [11] it was “Non-toxic”; in data set [27] it was 9.4%. Besides, the outcome in data set [17], in [22], in data set [24], in [28], in data set [29] and in data set [31] was Active. The result in data set [33] was Active. This molecule also gave an IC50 in data set [21] of 60 µM.
`Nc1n[nH]c2c3c(oc(=O)c12)-c1cc(Cl)ccc1SC3`: the Activity entry in [11] is “Non-toxic”. The outcome in [32] was inactive.
With `COc1ccc2c(c1)-c1oc(=O)c3c(N)n[nH]c3c1CCO2`, the result in data set [14], in data set [23], in data set [30] and in [32] was inactive. Further, the Activity in data set [15] was 0.2%; in data set [16] it was 3%; in [18] it was 9%; in [19], 7.7%; in data set [20], 33.6%; in data set [21] it was “Dose-dependent effect”. Moreover, the Activity in data set [25] is on record as 0.3%; in [26] it was 49.3%; in data set [11], “Non-toxic”; in [27] it was 16.7%. In addition, the outcome in data set [17], in data set [22], in data set [24], in [28], in data set [29] and in data set [31] was Active. Moreover, the result in [33] was Active. Moreover, inhibition in [21] was half-maximal at 40 µM (IC50).
For `Nc1n[nH]c2c3c(oc(=O)c12)-c1ccccc1SC3`, the Activity entry in data set [11] is “Non-toxic”. In data set [32], the outcome was inactive.
On to `Nc1n[nH]c2c3c(oc(=O)c12)-c1ccc2ccccc2c1OCC3`, for which the outcome in data set [14], in data set [23] and in [30] was inactive. In addition, the Activity in data set [15] is 1.7%; in data set [16], 7%; in data set [18], 7.5%; in data set [19], 8.6%; in [20], 54.7%; in [21], “Dose-dependent effect”. For the same molecule, the Activity in data set [25] is on record as 0.2%; in [26] it was 50.7%; in data set [11], “Non-toxic”; in data set [27], 5.5%. Further, the result in [17], in data set [22], in data set [24], in [28], in [29] and in data set [31] was Active. Besides, the outcome in data set [33] was Active. The IC50 in data set [21] stood at 20 µM.
Consider `CC(=O)c1c(O)c2ccc3ccccc3c2oc1=O`, for which the CC50 in [34] and in data set [35] was 6.87 µg/mL (≈ 27 µM) in each case.
Regarding `Nc1n[nH]c2c1C(=O)NN=C1c3cc(Cl)ccc3SCC12` (centres undefined), the Activity result in data set [11] is reported as “Non-toxic”. Besides, the outcome in data set [32] was inactive.
`Nc1n[nH]c2c3c(oc(=O)c12)-c1ccccc1OCC3`: the Activity entry in [1] was “Dose-dependent effect”; in [3], 70.4%; in data set [5], 15.8%; in data set [7], 9.2%; in data set [10] it was 4.6%; in [11], “Non-toxic”. For the same molecule, the result in data set [2], in data set [4], in [6], in data set [8], in data set [12] and in [13] was Active. The same molecule came in with an IC50 in data set [9] of 80 µM.

Source of the values: ChEMBL document CHEMBL3259815, “Regioselective synthesis of polycyclic aza-oxa and aza-oxa-thia heteroarenes as Colo-205 and HepG2 carcinoma cells growth inhibitors” (Eur J Med Chem, 2014).
